Laboratory results as given in PubChem BioAssay (NCI).
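Abbreviation: GI50, concentration required for 50% inhibition of growth. TGI marks complete inhibition of growth.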

Columns and labels:
Test in all cases: growth of human tumour cells (NCI), 384-well format
SNB-75 CNS = test system: SNB-75 CNS
BT-549 breast = test system: BT-549 breast
SK-MEL-28 melanoma = test system: SK-MEL-28 melanoma
HT29 colon = test system: HT29 colon
NCI-H23 lung = test system: NCI-H23 lung
HCT-116 colon = test system: HCT-116 colon
U251 glioblastoma = test system: U251 glioblastoma
ACHN renal = test system: ACHN renal
OVCAR-8 ovarian = test system: OVCAR-8 ovarian
T-47D breast = test system: T-47D breast
SF-268 CNS = test system: SF-268 CNS
NCI-H226 lung = test system: NCI-H226 lung
HS 578T breast = test system: HS 578T breast
OVCAR-5 ovarian = test system: OVCAR-5 ovarian
RPMI-8226 leukemia = test system: RPMI-8226 leukemia
HL-60(TB) leukemia = test system: HL-60(TB) leukemia
SW-620 colon = test system: SW-620 colon
UO-31 renal = test system: UO-31 renal
MOLT-4 leukemia = test system: MOLT-4 leukemia
SF-295 CNS = test system: SF-295 CNS
MDA-MB-435 melanoma = test system: MDA-MB-435 melanoma
MCF7 breast = test system: MCF7 breast
HOP-62 NSCLC = test system: HOP-62 NSCLC
SNB-19 CNS = test system: SNB-19 CNS
NCI/ADR-RES ovarian = test system: NCI/ADR-RES ovarian
SN12C renal = test system: SN12C renal
MDA-MB-231 breast = test system: MDA-MB-231 breast
SF-539 CNS = test system: SF-539 CNS
A498 renal = test system: A498 renal
MDA-MB-468 breast = test system: MDA-MB-468 breast
OVCAR-3 ovarian = test system: OVCAR-3 ovarian
786-0 renal = test system: 786-0 renal
LOX IMVI melanoma = test system: LOX IMVI melanoma
MALME-3M melanoma = test system: MALME-3M melanoma
NCI-H322M lung = test system: NCI-H322M lung
K-562 leukemia = test system: K-562 leukemia
HOP-92 NSCLC = test system: HOP-92 NSCLC
PC-3 prostate = test system: PC-3 prostate
IGROV1 ovarian = test system: IGROV1 ovarian
SK-OV-3 ovarian = test system: SK-OV-3 ovarian
KM12 colon = test system: KM12 colon
TK-10 renal = test system: TK-10 renal
CAKI-1 renal = test system: CAKI-1 renal
UACC-257 melanoma = test system: UACC-257 melanoma
RXF 393 renal = test system: RXF 393 renal
CCRF-CEM leukemia = test system: CCRF-CEM leukemia
EKVX NSCLC = test system: EKVX NSCLC
HCT-15 colon = test system: HCT-15 colon
M14 melanoma = test system: M14 melanoma
UACC-62 melanoma = test system: UACC-62 melanoma
A549 NSCLC = test system: A549 NSCLC
NCI-H522 lung = test system: NCI-H522 lung
COLO 205 colon = test system: COLO 205 colon
HCC-2998 colon = test system: HCC-2998 colon
NCI-H460 NSCLC = test system: NCI-H460 NSCLC
SK-MEL-5 melanoma = test system: SK-MEL-5 melanoma
SR leukemia = test system: SR leukemia
DU-145 prostate = test system: DU-145 prostate
OVCAR-4 ovarian = test system: OVCAR-4 ovarian

S=c1nc[nH]c2nc[nH]c12
GI50 (SNB-75 CNS): 217 nM
TGI (SNB-75 CNS): 5130 nM
GI50 (BT-549 breast): 482 nM
TGI (BT-549 breast): 2300 nM
GI50 (SK-MEL-28 melanoma): 15400 nM
TGI (SK-MEL-28 melanoma): 99600 nM
GI50 (HT29 colon): 1890 nM
GI50 (NCI-H23 lung): 576 nM
TGI (NCI-H23 lung): 5860 nM
GI50 (HCT-116 colon): 1800 nM
GI50 (U251 glioblastoma): 3300 nM
GI50 (ACHN renal): 1830 nM
TGI (ACHN renal): 6910 nM
GI50 (OVCAR-8 ovarian): 1480 nM
TGI (OVCAR-8 ovarian): 5930 nM
GI50 (T-47D breast): 423 nM
GI50 (SF-268 CNS): 1110 nM
TGI (SF-268 CNS): 2800 nM
GI50 (NCI-H226 lung): 294 nM
TGI (NCI-H226 lung): 11900 nM
GI50 (HS 578T breast): 473 nM
TGI (HS 578T breast): 3380 nM
GI50 (OVCAR-5 ovarian): 1250 nM
TGI (OVCAR-5 ovarian): 2800 nM
GI50 (RPMI-8226 leukemia): 289 nM
TGI (RPMI-8226 leukemia): 1280 nM
GI50 (HL-60(TB) leukemia): 357 nM
TGI (HL-60(TB) leukemia): 1840 nM
GI50 (SW-620 colon): 4150 nM
GI50 (UO-31 renal): 1860 nM
TGI (UO-31 renal): 5230 nM
GI50 (MOLT-4 leukemia): 151 nM
TGI (MOLT-4 leukemia): 318 nM
GI50 (SF-295 CNS): 1130 nM
TGI (SF-295 CNS): 3710 nM
GI50 (MDA-MB-435 melanoma): 729 nM
GI50 (MCF7 breast): 272 nM
TGI (MCF7 breast): 10200 nM
GI50 (HOP-62 NSCLC): 219 nM
TGI (HOP-62 NSCLC): 592 nM
GI50 (SNB-19 CNS): 11300 nM
TGI (SNB-19 CNS): 37000 nM
GI50 (NCI/ADR-RES ovarian): 2060 nM
TGI (NCI/ADR-RES ovarian): 8770 nM
GI50 (SN12C renal): 2430 nM
TGI (SN12C renal): 19400 nM
GI50 (MDA-MB-231 breast): 395 nM
TGI (MDA-MB-231 breast): 1860 nM
GI50 (SF-539 CNS): 481 nM
TGI (SF-539 CNS): 2910 nM
GI50 (A498 renal): 10600 nM
TGI (A498 renal): 96700 nM
GI50 (MDA-MB-468 breast): 150 nM
TGI (MDA-MB-468 breast): 416 nM
GI50 (OVCAR-3 ovarian): 168 nM
TGI (OVCAR-3 ovarian): 389 nM
GI50 ([…]-0 renal): 468 nM
TGI (786-0 renal): 2200 nM
GI50 (LOX IMVI melanoma): 206 nM
TGI (LOX IMVI melanoma): 481 nM
GI50 (MALME-3M melanoma): 494 nM
TGI (MALME-3M melanoma): 3140 nM
GI50 (NCI-H322M lung): 1060 nM
TGI (NCI-H322M lung): 7280 nM
GI50 (K-562 leukemia): 334 nM
TGI (K-562 leukemia): 950 nM
GI50 (HOP-92 NSCLC): 301 nM
GI50 (PC-3 prostate): 2400 nM
GI50 (IGROV1 ovarian): 3630 nM
GI50 (SK-OV-3 ovarian): 569 nM
GI50 (KM12 colon): 1330 nM
GI50 (TK-10 renal): 437 nM
TGI (TK-10 renal): 2190 nM
GI50 (CAKI-1 renal): 1570 nM
TGI (CAKI-1 renal): 5450 nM
GI50 (UACC-257 melanoma): 2040 nM
GI50 (RXF 393 renal): 241 nM
TGI (RXF 393 renal): 1160 nM
GI50 (CCRF-CEM leukemia): 1420 nM
TGI (CCRF-CEM leukemia): 3000 nM
GI50 (EKVX NSCLC): 53900 nM
GI50 (HCT-15 colon): 4730 nM
GI50 (M14 melanoma): 306 nM
GI50 (UACC-62 melanoma): 876 nM
GI50 (A549 NSCLC): 5600 nM
TGI (A549 NSCLC): 57100 nM
GI50 (NCI-H522 lung): 299 nM
TGI (NCI-H522 lung): 1770 nM

Cc1cc(Nc2cc(CN3CCOCC3)c3nc(C)c(Cc4ccc(Cl)cc4F)n3n2)n[nH]1
GI50 (SNB-75 CNS): 812 nM
TGI (SNB-75 CNS): 2350 nM
GI50 (BT-549 breast): 842 nM
TGI (BT-549 breast): 2780 nM
GI50 (SK-MEL-28 melanoma): 2390 nM
TGI (SK-MEL-28 melanoma): 15000 nM
GI50 (HT29 colon): 1730 nM
TGI (HT29 colon): 16100 nM
GI50 (NCI-H23 lung): 578 nM
TGI (NCI-H23 lung): 2570 nM
GI50 (U251 glioblastoma): 1200 nM
TGI (U251 glioblastoma): 2750 nM
GI50 (ACHN renal): 1270 nM
TGI (ACHN renal): 7950 nM
GI50 (OVCAR-8 ovarian): 1370 nM
TGI (OVCAR-8 ovarian): 3650 nM
GI50 (T-47D breast): 855 nM
TGI (T-47D breast): 14000 nM
GI50 (SF-268 CNS): 439 nM
TGI (SF-268 CNS): 1620 nM
GI50 (NCI-H226 lung): 324 nM
TGI (NCI-H226 lung): 2080 nM
GI50 (HS 578T breast): 586 nM
TGI (HS 578T breast): 1810 nM
GI50 (OVCAR-5 ovarian): 1060 nM
TGI (OVCAR-5 ovarian): 3580 nM
GI50 (RPMI-8226 leukemia): 205 nM
TGI (RPMI-8226 leukemia): 516 nM
GI50 (HL-60(TB) leukemia): 302 nM
TGI (HL-60(TB) leukemia): 670 nM
GI50 (COLO 205 colon): 418 nM
TGI (COLO 205 colon): 1660 nM
GI50 (SW-620 colon): 671 nM
TGI (SW-620 colon): 8260 nM
GI50 (UO-31 renal): 1440 nM
TGI (UO-31 renal): 2880 nM
GI50 (MOLT-4 leukemia): 162 nM
TGI (MOLT-4 leukemia): 336 nM
GI50 (SF-295 CNS): 1210 nM
TGI (SF-295 CNS): 2700 nM
GI50 (MDA-MB-435 melanoma): 563 nM
TGI (MDA-MB-435 melanoma): 15100 nM
GI50 (MCF7 breast): 894 nM
TGI (MCF7 breast): 6570 nM
GI50 (HOP-62 NSCLC): 1050 nM
TGI (HOP-62 NSCLC): 2950 nM
GI50 (HCC-2998 colon): 1130 nM
TGI (HCC-2998 colon): 2390 nM
GI50 (SNB-19 CNS): 1850 nM
TGI (SNB-19 CNS): 4250 nM
GI50 (NCI-H460 NSCLC): 356 nM
TGI (NCI-H460 NSCLC): 1030 nM
GI50 (NCI/ADR-RES ovarian): 2520 nM
TGI (NCI/ADR-RES ovarian): 7880 nM
GI50 (SN12C renal): 730 nM
TGI (SN12C renal): 9250 nM
GI50 (MDA-MB-231 breast): 1070 nM
TGI (MDA-MB-231 breast): 3020 nM
GI50 (SF-539 CNS): 1080 nM
TGI (SF-539 CNS): 2450 nM
GI50 (A498 renal): 724 nM
TGI (A498 renal): 3290 nM
GI50 (MDA-MB-468 breast): 271 nM
TGI (MDA-MB-468 breast): 535 nM
GI50 (OVCAR-3 ovarian): 825 nM
TGI (OVCAR-3 ovarian): 2960 nM
GI50 ([…]-0 renal): 688 nM
TGI (786-0 renal): 2320 nM
GI50 (SK-MEL-5 melanoma): 693 nM
TGI (SK-MEL-5 melanoma): 5820 nM
GI50 (LOX IMVI melanoma): 868 nM
TGI (LOX IMVI melanoma): 2130 nM
GI50 (MALME-3M melanoma): 1490 nM
TGI (MALME-3M melanoma): 9790 nM
GI50 (NCI-H322M lung): 1710 nM
TGI (NCI-H322M lung): 4680 nM
GI50 (K-562 leukemia): 380 nM
TGI (K-562 leukemia): 1360 nM
GI50 (HOP-92 NSCLC): 554 nM
TGI (HOP-92 NSCLC): 2560 nM
GI50 (PC-3 prostate): 2200 nM
TGI (PC-3 prostate): 13700 nM
GI50 (IGROV1 ovarian): 1690 nM
TGI (IGROV1 ovarian): 3360 nM
GI50 (SK-OV-3 ovarian): 1230 nM
TGI (SK-OV-3 ovarian): 3380 nM
GI50 (KM12 colon): 37.8 nM
TGI (KM12 colon): 1470 nM
GI50 (TK-10 renal): 1950 nM
TGI (TK-10 renal): 4720 nM
GI50 (CAKI-1 renal): 1030 nM
TGI (CAKI-1 renal): 2240 nM
GI50 (UACC-257 melanoma): 5450 nM
TGI (UACC-257 melanoma): 20600 nM
GI50 (RXF 393 renal): 612 nM
TGI (RXF 393 renal): 2360 nM
GI50 (CCRF-CEM leukemia): 276 nM
TGI (CCRF-CEM leukemia): 604 nM
GI50 (EKVX NSCLC): 1580 nM
TGI (EKVX NSCLC): 8090 nM
GI50 (HCT-15 colon): 1110 nM
TGI (HCT-15 colon): 12000 nM
GI50 (SR leukemia): 166 nM
TGI (SR leukemia): 312 nM
GI50 (M14 melanoma): 1740 nM
TGI (M14 melanoma): 11800 nM
GI50 (UACC-62 melanoma): 1230 nM
TGI (UACC-62 melanoma): 2990 nM
GI50 (A549 NSCLC): 772 nM
TGI (A549 NSCLC): 3350 nM
GI50 (DU-145 prostate): 1020 nM
TGI (DU-145 prostate): 3000 nM
GI50 (NCI-H522 lung): 366 nM
TGI (NCI-H522 lung): 1110 nM
GI50 (OVCAR-4 ovarian): 874 nM
TGI (OVCAR-4 ovarian): 5880 nM
